From patent publication US7897789B2, “Vitamin D receptor modulators” (Eli Lilly and Company, priority 2003, dated 2011)
Several values for one entry are separate records, joined by “and”; a condition that tells them apart may be missing. Identical values can stand only once. Like-named read-outs stand apart in the source and are kept apart here.

What was measured:
RXR-VDR heterodimer = target: T1, RXR-VDR heterodimer (Homo sapiens, UniProt P11473); assay: RXR-VDR heterodimerization assay (SaOS-2 cells); assay type: cell-based; conditions: Gal4-RXR / VP16-VDR-LBD luciferase reporter, Table 1
T1 construct: Add the Gal4-RXR-DEF and VP16-VDR-LBD; expressed in transfected cells; host or cells: SaOS-2 cells
T1 sequence (P11473 127-423 limits assumed): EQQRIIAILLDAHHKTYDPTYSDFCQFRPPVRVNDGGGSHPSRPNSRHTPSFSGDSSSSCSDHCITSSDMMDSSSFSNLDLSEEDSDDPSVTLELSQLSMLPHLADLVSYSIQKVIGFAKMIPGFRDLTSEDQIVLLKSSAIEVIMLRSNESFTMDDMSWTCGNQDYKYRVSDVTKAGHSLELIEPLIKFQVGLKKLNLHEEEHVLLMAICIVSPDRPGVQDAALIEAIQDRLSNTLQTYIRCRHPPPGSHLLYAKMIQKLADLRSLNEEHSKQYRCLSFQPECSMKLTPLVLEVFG
T1 sequence (P19793 201-462 partner limits assumed): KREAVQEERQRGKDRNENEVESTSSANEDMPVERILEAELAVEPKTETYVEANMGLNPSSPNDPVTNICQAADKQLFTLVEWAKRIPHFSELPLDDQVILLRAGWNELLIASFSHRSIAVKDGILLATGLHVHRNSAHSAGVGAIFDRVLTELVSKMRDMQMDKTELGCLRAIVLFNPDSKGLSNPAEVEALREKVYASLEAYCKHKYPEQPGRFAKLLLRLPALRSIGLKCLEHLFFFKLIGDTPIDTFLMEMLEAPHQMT
Method: 1. The RXR-VDR HeterodimerAssay:
This assay provides the VDR activity of a test compound.
(1) Materials and Method for RXR-VDR Heterodimerization Assay:
Luciferase Assay Reagent: • Use Steady-Glo Luciferase Reagent from Promega (Cat #E2550) Consists of: a. E2533 Assay Substrate, lyopholized product and b. E2543 Assay Buffer. • Thaw at room temperature • Store Cell Harvesting Aspirate media from culture flask, rinse cells with HBSS and aspirate. Add trypsin and incubate. When cells appear detached, resuspend cells in growth media. Transfer into a new flask with fresh growth media for passaging the cells. Plate well plates and two extra plates A. Cell Count Mix the cell suspension using pipette Use Hematocytometer to count the cells Load cell suspension onto the hemocytometer chamber Count cells. […] In sterile flask add cell suspension to plating media. Mix. Add cells/well. Place the cells in the incubator. Cells should be about 75% confluent prior to transfection. DAY 2: Transfection Step 1: DNA and Media Add plain DMEM media to tubes for mixing the DNA Add the Reporter gene pFR-LUC Add the Gal4-RXR-DEF and VP16-VDR-LBD Step 2: FuGENE and Media Prepare plain DMEM media in a ubes for mixing FuGENE Add FuGENE 6 Transfection Reagent Incubate Step 3: FuGENE, DNA and Media Complex Add FuGENE Media complex from step 2 to DNA Media complex from step 1 Incubate Step 4: FuGENE, DNA and Media Complex to-well plate Add FuGENE-DNA-Media complex from step 3 to each plate Incubate. […] Day 4: Luciferase Assay Read the plates after drug treatment Remove part of media from all the wells and leave remainder Add Steady-Glo Luciferase Reagent mixture/wells Incubate Count each well using a Luminescence counter, Top Count NXT by Packard
Set a delay between plates to reduce the background.

VDR = target: T2, VDR (Homo sapiens, UniProt P11473); assay: Caco-2 cell co-transfection assay (VDR CTF); assay type: cell-based; conditions: Caco-2 cells, pGal4-VDR-LBD luciferase co-transfection; Table 1
T2 construct: the receptor expression vector pGal4-VDR-LBD (10 ng); expressed in transfected cells; host or cells: Caco-2 cells
T2 sequence (P11473 127-423 limits assumed): T1 sequence (P11473 127-423 limits assumed)
Method: 2. The Caco-2 Cell Co-Transfection Assay:
The Caco-2 cell assay is an indicator for the undesirable condition of hypercalcemia. This co-transfection assay is a surrogate assay for in vivo calcemic activity of VDR ligands. […] Preferred assay results are greater than 1000 nM.
(2) Materials and Method for The Caco-2 Cell Assay:
Caco-2 cells, grown in phenol red free, DMEM (Invitrogen, Carlsbad, Calif.) containing 10% charcoal-stripped FCS (Hyclone, Logan, Utah), were transfected with Fugene 6 reagent (Roche Diagnostics, Indianapolis, Ind.). Cells (5000/well) were plated 18 h before transfection in a 96 well plate. The Cells were transfected with Gal4-responsive reporter pFRLuc (150 ng, Stratagene, La Jolla Calif.) and the receptor expression vector pGal4-VDR-LBD (10 ng), along with Fugene 6 reagent (0.2 μl/well). The DNA-Fugene complex was formed by incubating the mixture for 30 min at room temperature. The cells were transfected in triplicate for 5 h, and treated with various concentrations of VDR ligands (form 0.01 nM to 10,000 nM concentration range) 18 h post-transfection. The luciferase activity was quantified using Steady-Glo reagent kit (Promega, Madison, Wis.) as per manufacturer's specifications.

rat osteocalcin promoter = assay: OCN (osteocalcin) promoter assay; assay type: cell-based; conditions: RG-15 (ROS 17/2.8) cells, 48 hr treatment, Table 1
Method: 3. The OCN (Osteocalcin) Promoter Assay
The OCN Promoter Assay is an indicator and marker for osteoporosis. […] Preferred assay results are less than 50 nM.
(3) Materials and Method for the OCN Promoter Assay:
The activation of osteocalcin by VDR ligands was evaluated in a rat osteoblast-like cell line RG-15 (ROS 17/2.8) stably expressing rat osteocalcin promoter fused with luciferase reporter gene. […] Confluent RG-15 cells maintained in DMEM/F-12 medium (3:1) containing 5% FBS, 300 μg/ml G418 and at 37° C. under 5% CO2/95% air atmosphere were trypsinized (0.25% trypsin) and plated into white opaque 96-well cell culture plates (25000 cells/well). After 24 hr, cells (in DMEM/F-12 medium+2% FBS) were treated with various concentrations of compounds, dissolved in DMSO. The final DMSO concentration remained at 0.01% (v/v). After 48 hr treatment, the medium was removed, cells were lysed with 50 μl of lysis buffer (From Luciferase reporter assay system, Roche Diagnostics, Indianapolis, Ind.) and assayed for luciferase activity using the Luciferase Reporter Gene Assay kit from Boehringer Mannheim as per manufacturer's specifications.

KERtr cells = assay: Keratinocyte proliferation assay; assay type: cell-based; conditions: Homo sapiens
Method: 5. The Keratinocyte Proliferation Assay
This Assay is indicative for the treatment of psoriasis.
(5) The Keratinocyte Proliferation Assay:
KERtr cells (Human skin keratinocyte transformed with a retrovirus vector, obtained from ATCC) were plated in 96-well flat-bottomed plates (3000 cells/well) in 100 μl keratinocyte serum free medium supplemented with bovine pituitary extract in the absence of EGF (Life Technologies, Rockville, Md.) and incubated at 37° C. for two days. The cells were treated with various concentrations of VDR ligands (ten-fold serial dilution from 10,000 nM to 0.1 nM in triplicate), dissolved in 100 μl keratinocyte serum free medium supplemented with bovine pituitary extract in the absence of EGF and incubated at 37° C. for 72 hr. […] Potency values (IC50) values were determined as the concentration (nM) of compound that elicited a half-maximal response.

DBF mice = assay: Mouse hypercalcemia assay; conditions: oral gavage for 6 days, serum ionized calcium 6 hours after last dosing; Table 1
Excerpt: The Mouse Hypercalcemia Assay
The Mouse Hypercalcemia Assay is a six day hypercalcemia test for toxicity and selectivity.
(4) Materials and Method for the Mouse Hypercalcemia Assay:
Weanling, virus-antibody-free, five to six weeks old female DBF mice (Harlan, Indianapolis, Ind.) are used for all the studies. Animals are allowed to acclimate to local vivarium conditions for 2 days. […] The animals then are divided into groups with 4-5 mice per group. Different doses of test compounds prepared in 10% Ethanol and 90% sesame oil are administered to mice orally via gavage for 6 days. 1α-25(OH)2D3 0.5 μg/kg/d was also given to one group of mice as the positive control. […] Raw data of group differences is assessed by analysis of variance (ANOVA) using Fisher's protected least significant difference (PLSD) where the significance level was P<0.05.

IL-10 = assay: Human IL-10 induction assay in PBMCs; assay type: cell-based; conditions: PBMC
Excerpt: 6. The IL-10 Induction Assay
This is an in vitro efficacy assay for psoriasis, abscess and adhesion. Psoriasis involves both keratinocytes and immune cells. IL-10 is a unique cytokine because it is anti-inflammatory and immunosuppressive. This assay tells us whether a VDRM is able to function as an agonist in PBMCs ([…]) or not.
(6) Materials and Method for Human IL-10 Induction Assay:
Isolation of Peripheral Blood Mononuclear Cells (PBMCs):
Stimulation of PBMC: • L. Prepare TPA in DMSO. • M. Dissolve PHA in water. • N. Plate TPA/PHA treated PBMCs in well plates. • O. Incubate.
Sample Collection and Assay: • S. Remove all the cells by centrifugation and assay the supernatant for IL-10 by immunoassay. • T. Perform IL-10 assay using anti-human IL-10 antibody coated beads, as described by the manufacturer (Linco Research Inc., St. Charles, Mo.). (8) CaT1 Assay

[1] = 72 h, BrdU incorporation, Table 2, read-out: Kera. Prolif. IC50
[2] = TPA/PHA treated human PBMCs, Table 2

IC50 (IL-10; human PBMCs, comparison compounds, Table 4) [nM] | SMILES | EC50 (RXR-VDR heterodimer) | EC50 (VDR) [nM] | EC50 (rat osteocalcin promoter) [nM] | EC50 (rat osteocalcin promoter; Rattus norvegicus, 48 h) [nM] | IC50 (KERtr cells; [1]) [nM] | Mouse Hypercal (DBF mice) [µg/kg/day] | IC50 (IL-10; [2]) [nM] | IC50 (KERtr cells; comparison compounds, Table 4, read-out: Kera. Prolif. IC50) [nM]
 | CCC(CC)(c1ccc(OCC(=O)C(C)(C)C)c(C)c1)c1cc2cc(C(=O)O)ccc2s1 [Ex 17, 2-{1-[4-(3,3-dimethyl-2-oxo-butoxy)-3-methyl-phenyl]-1-ethyl-propyl}-benzo[b]thiophene-5-carboxylic acid] | 272 nM and 51 nM | 631 | 3 | 4 | 404 | >300 |  | 
 | CCC(CC)(c1ccc(OCC(O)C(C)(C)C)c(C)c1)c1cc2cc(C(=O)O)ccc2s1 (stereo not shown) [Ex 18, 2-{1-ethyl-1-[4-(2-hydroxy-3,3-dimethyl-butoxy)-3-methyl-phenyl]-propyl}-benzo[b]thiophene-5-carboxylic acid] |  | 748 | 1.3 | 2.4 | 1.8 |  | 89 | 
 | CCC(CC)(c1ccc(OCC(O)C(C)(C)C)c(C)c1)c1cc2cc(C(=O)NCC(=O)O)ccc2s1 (stereo not shown) [Ex 20, [(2-{1-Ethyl-1-[4-(2-hydroxy-3,3-dimethyl-butoxy)-3-methyl-phenyl]-propyl}-benzo[b]thiophene-5-carbonyl)-amino]-acetic acid] | 24 nM | 314 |  | 5 | 98 |  | 386 | 
 | CCC(CC)(c1ccc(OCC(=O)C(C)(C)C)c(C)c1)c1cc2cc(C(=O)N(C)C)ccc2s1 [Ex 21, 2-{1-[4-(3,3-Dimethyl-2-oxo-butoxy)-3-methyl-phenyl]-1-ethyl-propyl}-benzo[b]thiophene-5-carboxylic acid dimethylamide] | 134 nM and 24 nM | 708 | 48 | 29 | 162 | >1000 |  | 
 | CCC(CC)(c1ccc(OCC(=O)C(C)(C)C)c(C)c1)c1ccc2cc(C(=O)O)sc2c1 [Ex. 1, 6-{1-[4-(3,3-dimethyl-2-oxo-butoxy)-3-methyl-phenyl]-1-ethyl-propyl}-benzo[b]thiophene-2-carboxylic acid] |  | 432 | 1 | 2 |  | <300 | 109 | 
 | CCC(CC)(c1ccc(OCC(O)C(C)(C)C)c(C)c1)c1ccc2cc(C(=O)O)sc2c1 (stereo not shown) [Ex. 2, 6-{1-ethyl-1-[4-(2-hydroxy-3,3-dimethyl-butoxy)-3-methyl-phenyl]-propyl}-benzo[b]thiophene-2-carboxylic acid] | 30 nM | 411 |  | 1 | 1 |  | 24 | 
 | CCC(CC)(c1ccc(OCC(=O)C(C)(C)C)c(C)c1)c1ccc2cc(C(=O)N(C)C)sc2c1 [Ex. 3, 6-{1-[4-(3,3-Dimethyl-2-oxo-butoxy)-3-methyl-phenyl]-1-ethyl-propyl}-benzo[b]thiophene-2-carboxylic acid dimethylamide] | 442 nM and 67 nM | 869 |  |  | > 1000 |  | 351 | 
 | CCC(CC)(c1ccc(OCC(=O)C(C)(C)C)c(C)c1)c1ccc2cc(C(=O)NCC(=O)O)sc2c1 [Ex. 5, [(6-{1-[4-(3,3-dimethyl-2-oxo-butoxy)-3-methyl-phenyl]-1-ethyl-propyl}-benzo[b]thiophene-2-carbonyl)-amino]-acetic acid] |  | 342 |  | 1 | 4 | >300 | 6 | 
 | CCC(CC)(c1ccc(OCC(O)C(C)(C)C)c(C)c1)c1ccc2cc(C(=O)NCC(=O)O)sc2c1 (stereo not shown) [Ex. 6, [(6-{1-ethyl-1-[4-(2-hydroxy-3,3-dimethyl-butoxy)-3-methyl-phenyl]-propyl}-benzo[b]thiophene-2-carbonyl)-amino]-acetic acid] |  | 331 |  |  | 4 |  | 4 | 
 | CCC(CC)(c1ccc(OCC(O)C(C)(C)C)c(C)c1)c1cc2ccc(C(=O)O)cc2s1 (stereo not shown) [Ex. 8, 2-{1-Ethyl-1-[4-(2-hydroxy-3,3-dimethyl-butoxy)-3-methyl-phenyl]-propyl}-benzo[b]thiophene-6-carboxylic acid] |  | 409 |  |  | 1 |  | 15 | 
0.5 | C=C1/C(=C\C=C2/CCC[C@]3(C)[C@@H]([C@H](C)/C=C/[C@@H](O)C4CC4)CC[C@@H]23)C[C@@H](O)C[C@@H]1O [FF, calcipotriol, reference compound] |  |  |  |  |  |  |  | 103
